Data: PubChem BioAssay (NCI)
Values joined by “and” are separate entries in the source; they are usually repeats but may differ in a detail not shown here. Equal entries are not always repeated.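 Following 48 hours of exposure in 96-well plates, responses at five concentrations were used to interpolate endpoints linearly. GI50 marks 50% less growth. TGI is the concentration that stops growth completely.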

Assays:
Assay in all cases: DTP human tumour cell line panel, 48 h
HS 578T breast = test system: HS 578T breast
OVCAR-8 ovarian = test system: OVCAR-8 ovarian
SF-539 CNS = test system: SF-539 CNS
U251 CNS = test system: U251 CNS
SNB-75 CNS = test system: SNB-75 CNS
CCRF-CEM leukemia = test system: CCRF-CEM leukemia
OVCAR-5 ovarian = test system: OVCAR-5 ovarian
SN12C renal = test system: SN12C renal
SK-OV-3 ovarian = test system: SK-OV-3 ovarian
BT-549 breast = test system: BT-549 breast

SMILES	GI50 (HS 578T breast)	TGI (HS 578T breast)	GI50 (OVCAR-8 ovarian)	TGI (OVCAR-8 ovarian)	GI50 (SF-539 CNS)	TGI (SF-539 CNS)	GI50 (U251 CNS)	TGI (U251 CNS)	GI50 (SNB-75 CNS)	TGI (SNB-75 CNS)	GI50 (CCRF-CEM leukemia)	TGI (CCRF-CEM leukemia)	GI50 (OVCAR-5 ovarian)	TGI (OVCAR-5 ovarian)	GI50 (SN12C renal)	TGI (SN12C renal)	GI50 (SK-OV-3 ovarian)	TGI (SK-OV-3 ovarian)	GI50 (BT-549 breast)	TGI (BT-549 breast)
CC(=O)O[C@H]1[C@@H]2OC(=O)C(CSc3ccccc3)[C@@H]2C[C@H]2O[C@]2(C)CC/C=C(\C)CCC[C@@H]1C (stereo partly specified)	2.79 µM	10.2 µM	3.77 µM	29.5 µM	9.4 µM	23.3 µM	3.97 µM	16.5 µM	2.98 µM	11.6 µM	2.17 µM	> 21.1 µM	12.4 µM	33.7 µM	3.45 µM	14.8 µM	13.6 µM	57 µM	1.98 µM	8.84 µM
Cc1cc(N2CCOCC2)nc(N(CCCNc2ccnc3cc(Cl)ccc23)Cc2ccco2)n1	4.03 µM	25.7 µM	3.15 µM	12.1 µM	1.95 µM	4.02 µM	3.15 µM	10.6 µM	2.29 µM	9.78 µM	2.67 µM	18.3 µM	4.23 µM	19.3 µM	3.35 µM	14.6 µM	2.84 µM	10.7 µM	2.3 µM	7.95 µM
CC([C@H]1CCC2C3CCC4C[C@@H](N)CC[C@]4(C)C3CC[C@@]21C)N(C)C (stereo partly specified)	3.35 µM	16.1 µM	15.7 µM	> 53.6 µM	2.01 µM	4.98 µM	3.61 µM	15.6 µM	8.15 µM	24.9 µM	6.69 µM	23.3 µM	17.5 µM	41.4 µM	8.17 µM	25.7 µM	13.4 µM	30.4 µM	5.9 µM	28.1 µM
C=C(CO)[C@@H]1CC[C@]2(COC3CCCCO3)CC[C@]3(C)[C@H](CC[C@@H]4[C@@]5(C)C=C(C=O)C(=O)C(C)(C)[C@@H]5CC[C@]43C)[C@@H]12 (stereo partly specified)	0.318 µM	0.997 µM	0.356 µM	1.44 µM	0.196 µM	0.428 µM	0.209 µM	0.546 µM	0.206 µM	0.625 µM	0.211 µM	1.12 µM	0.232 µM	0.853 µM	0.228 µM	0.671 µM	1.3 µM	2.68 µM	0.221 µM	0.619 µM
CN(CC(=O)Nc1nc2ccccc2[nH]1)S(=O)(=O)c1ccc(Cl)cc1	65 µM	> 100 µM	95.2 µM	> 100 µM	> 100 µM	> 100 µM	> 100 µM	> 100 µM	22.1 µM	78.8 µM	> 100 µM	> 100 µM	> 100 µM	> 100 µM	> 100 µM	> 100 µM	> 100 µM	> 100 µM	> 100 µM	> 100 µM
OCCNc1nc(Nc2ccc(Cl)c(Cl)c2)nc2ccccc12	6.91 µM	25.2 µM	4.79 µM	17.6 µM	5.68 µM	20.6 µM	3.7 µM	15.5 µM	4.79 µM	18.7 µM	3.07 µM	18.1 µM	2.21 µM	6.22 µM	5.37 µM	20.7 µM	11 µM	23.4 µM	16 µM	29.8 µM
Cc1ccc(C(=O)/C(=C\c2ccc([N+](=O)[O-])cc2)S(=O)Cc2ccc(Cl)cc2)cc1 (stereo unspecified)	2.48 µM	7.39 µM	2.05 µM	5.13 µM	1.85 µM	3.37 µM	1.56 µM	3 µM	1.53 µM	3.25 µM	0.635 µM	> 100 µM	1.97 µM	3.91 µM	1.76 µM	3.64 µM	9.55 µM	21.3 µM	1.73 µM	3.22 µM
CC1(N)CCN(c2cnc(-c3cccc(Cl)c3Cl)c(N)n2)CC1	13.3 µM	64 µM	28.2 µM	> 100 µM	12.9 µM	31.5 µM	9.02 µM	91.2 µM	7.24 µM	27 µM	23.2 µM	> 100 µM	27.7 µM	> 100 µM	15.6 µM	> 100 µM	3.02 µM	60.5 µM	10.8 µM	26.2 µM
COc1cc(C2=N/C(=C/c3cccs3)C(=O)O2)cc(OC)c1OC	–	> 100 µM	–	> 100 µM	–	> 100 µM	–	> 100 µM	–	> 100 µM	–	> 100 µM	–	> 100 µM	–	> 100 µM	–	> 100 µM	–	> 100 µM
O=C(Nc1cccc(Cl)c1)c1cccc(NC2=C(Cl)C(=O)N(Cc3ccccc3)C2=O)c1	> 100 µM	> 100 µM	56.4 µM	> 100 µM	81.8 µM	> 100 µM	43.1 µM	> 100 µM	> 100 µM	> 100 µM	7.2 µM	> 100 µM	> 100 µM	> 100 µM	2.62 µM	56.9 µM	> 100 µM	> 100 µM	36.9 µM	> 100 µM
CO/N=C(\COc1ccc2oc(-c3ccccc3)cc(=O)c2c1)c1ccc(OC)cc1	35.1 µM	> 100 µM	31.8 µM	> 100 µM	24.4 µM	64.7 µM	22.3 µM	53.6 µM	25.4 µM	54.5 µM	29.7 µM	74.8 µM	24.6 µM	82.7 µM	19.3 µM	44.7 µM	59.3 µM	> 100 µM	41.2 µM	> 100 µM
O=NNc1ccc(Sc2ccc(NN=O)cn2)nc1	–	> 100 µM	–	> 100 µM	–	> 100 µM	–	> 100 µM	–	> 100 µM	–	> 100 µM	–	> 100 µM	–	> 100 µM	–	> 100 µM	–	> 100 µM
COc1ccc2c(c1)C(=O)/C(=C/c1ccc([N+](=O)[O-])o1)O2	2.58 µM	> 26.8 µM	1.21 µM	5.4 µM	1.76 µM	3.91 µM	1.64 µM	3.43 µM	1.73 µM	5.69 µM	0.513 µM	2.19 µM	1.8 µM	3.64 µM	1.91 µM	4.36 µM	5.36 µM	> 29.9 µM	1.53 µM	3.44 µM
CC(C(N)C(=O)NC(C(=O)O)C1OC(n2ccc(=O)[nH]c2=O)C(O)C1O)C(O)c1ccc(O)cn1 (stereo unspecified)	–	> 100 µM	–	> 100 µM	–	> 100 µM	–	> 100 µM	–	> 100 µM	–	> 100 µM	–	> 100 µM	–	> 100 µM	–	–	–	> 100 µM
O=C(NO)[C@@H](Cc1ccccc1)NS(=O)(=O)c1ccc(-c2ccccc2)cc1	> 25 µM	> 25 µM	22.5 µM	> 25 µM	9.56 µM	> 25 µM	21.3 µM	> 25 µM	> 25 µM	> 25 µM	> 25 µM	> 25 µM	7.13 µM	> 25 µM	> 25 µM	> 25 µM	> 25 µM	> 25 µM	> 25 µM	> 25 µM
CC(=O)O[C@H](C[C@H](C(C)C)N(C)C(=O)[C@@H](NC(=O)[C@H]1CCCN1C)C(C)C)c1nc(C(=O)N[C@@H](Cc2ccccc2)C[C@H](C)C(=O)O)c(C)s1	< 0.00167 µM	> 16.7 µM	0.0033 µM	> 16.7 µM	< 0.00167 µM	0.0256 µM	< 0.00167 µM	> 16.7 µM	< 0.00167 µM	> 16.7 µM	< 0.00167 µM	> 16.7 µM	0.00716 µM	> 16.7 µM	< 0.00167 µM	> 16.7 µM	0.00203 µM	> 16.7 µM	< 0.00167 µM	0.151 µM
CC1=C(C(=O)Nc2cc(Cl)c3[nH]ncc3c2)C(c2ccc(C(F)(F)F)cc2)CC(=O)N1 (stereo unspecified)	0.898 µM	> 25 µM	> 25 µM	> 25 µM	14.8 µM	> 25 µM	> 25 µM	> 25 µM	3.13 µM	> 25 µM	13.8 µM	> 25 µM	> 25 µM	> 25 µM	> 25 µM	> 25 µM	> 25 µM	> 25 µM	5.07 µM	> 25 µM
CSC(=S)OC1CC(n2cnc3c(NC(=O)c4ccccc4)ncnc32)OC1CO[Si](C)(C)C(C)(C)C (stereo unspecified)	–	> 56.2 µM	–	> 56.2 µM	–	> 46.4 µM	–	44.4 µM	–	52 µM	–	> 51.7 µM	–	> 56.2 µM	–	52.2 µM	–	> 46.4 µM	–	> 100 µM
CCN(CC)C(=S)SCN1C(=O)c2ccccc2S1(=O)=O	> 100 µM	> 100 µM	> 57.9 µM	> 100 µM	41.7 µM	> 100 µM	52.5 µM	> 100 µM	46.7 µM	> 91.5 µM	< 0.01 µM	0.016 µM	> 68.4 µM	> 100 µM	53.7 µM	> 100 µM	> 100 µM	> 100 µM	63.4 µM	> 100 µM
O=C1OC(=O)C2CCCC3CCCC1C32 (stereo unspecified)	–	> 100 µM	–	> 100 µM	–	> 100 µM	–	> 100 µM	–	> 100 µM	–	> 100 µM	–	> 100 µM	–	> 100 µM	–	> 100 µM	–	> 100 µM
C/C(=N\NC(=S)SCc1ccccc1)c1ccccn1	–	26.3 µM	–	0.326 µM	–	2.49 µM	–	13.3 µM	–	13.7 µM	–	< 0.01 µM	–	9.71 µM	–	3.13 µM	–	–	–	6.07 µM
COc1cc2nccc(Oc3ccc(NC(=O)Nc4cc(C)on4)c(Cl)c3)c2cc1OC	1.48 µM and 1.54 µM	5.78 µM and > 10 µM	3.6 µM and 4.67 µM	> 100 µM	1.49 µM and 1.41 µM	4.05 µM and 4.74 µM	4.68 µM and 8.17 µM	> 100 µM	1.99 µM and 2.06 µM	6.24 µM and > 10 µM	3.1 µM	> 100 µM	4.15 µM and 4.08 µM	42.9 µM and > 10 µM	2.13 µM and 2.56 µM	> 100 µM	4.16 µM and 3.57 µM	26.5 µM and > 10 µM	4.16 µM and 4.99 µM	13.4 µM and > 10 µM
Cc1cc2c(C(N)=O)c(N)n(-c3c(C)ccc(O)c3C)c2nc1C	1.44 µM	7.18 µM	3.12 µM	18 µM	0.434 µM	2.88 µM	4.23 µM	34.1 µM	1.05 µM	8.3 µM	2.65 µM	> 100 µM	3.1 µM	51.9 µM	2.48 µM	34.5 µM	12.2 µM	89 µM	3.06 µM	16.7 µM
C=C1C(=O)O[C@H]2[C@H]1CC/C(COC(=O)C(C)c1ccc(CC(C)C)cc1)=C\CC[C@@]1(C)O[C@@H]21 (stereo partly specified)	2.04 µM	5.97 µM	1.32 µM	3.51 µM	1.6 µM	2.97 µM	1.49 µM	2.89 µM	1.68 µM	3.16 µM	0.228 µM	1.03 µM	1.8 µM	3.46 µM	1.34 µM	2.72 µM	9.7 µM	21.4 µM	0.533 µM	1.89 µM
O=C1C2CCN(CC2)C1(CO)CO	–	70.6 µM	–	74.7 µM	–	> 78.1 µM	–	> 75.5 µM	–	> 81.8 µM	–	32.2 µM	–	45.9 µM	–	33 µM	–	> 100 µM	–	41.7 µM
O=C(N/N=C/c1ccc(O)cc1O)c1cccc(Nc2ccnc(C(F)(F)F)c2)c1	7.71 µM	46.7 µM	0.716 µM	32.9 µM	0.967 µM	7.74 µM	0.617 µM	49 µM	11.3 µM	52.5 µM	0.257 µM	2.14 µM	6.28 µM	66.8 µM	2.01 µM	26.1 µM	1.22 µM	18.3 µM	1.45 µM	50.8 µM
Oc1ccc(C2c3ccccc3Oc3ccccc32)c2cccnc12	3.45 µM	> 100 µM	1.6 µM	> 100 µM	2.53 µM	25.5 µM	0.845 µM	> 100 µM	6.96 µM	> 100 µM	0.738 µM	> 100 µM	–	–	1.65 µM	> 100 µM	1.75 µM	> 100 µM	3.15 µM	> 100 µM
